In patent US20210130308A1, “MODULATORS OF EUKARYOTIC INITIATION FACTOR 2” (Denali Therapeutics Inc., priority 2018, published 2021):

Each compound was assayed on ATF4 translation (ISR pathway activation) (assay: ATF4 Nano Luciferase reporter integrated stress response (ISR) assay in H4 ATF4-NLuc (clone 17) cells). Settings: H4 ATF4-NLuc (clone 17) cells; compounds 30 minutes at 37 degree Celsius, then 50 um sodium arsenite for 6 additional hours; luminescence readout; read-out: IC50.
Format: cell-based, human
Source text: Cellular stress leads to activation of the integrated stress response pathway through one of four eukaryotic initiation factor 2α kinases and halts global translation, while allowing for the translation of select transcripts like ATF4 (activating transcription factor 4) that are important for the response to cellular stress. During normal conditions, small open reading frames (ORFs) in the 5′ UTR of ATF4 occupy the ribosome and prevent translation of the coding sequence of ATF4. During stress conditions however, the ribosome scans past these upstream ORFs and preferentially begins translation at the coding sequence of ATF4. In this way, the translation, and thus protein level of ATF4 is a readout of ISR pathway activation. Thus, a fusion of the uORFs and the beginning of the coding sequence of ATF to a common cellular reporter like nano-luciferase allows for a sensitive and high-throughput readout of ISR pathway activity.
Compounds as provided herein were tested in the following assay. The ATF4 Nano Luciferase reporter was constructed by fusing the human full length 5′ untranslated region (5′-UTR) and a small portion of the coding sequence of the ATF4 gene upstream of the Nano Luciferase (NLuc) coding sequence lacking it's start codon. Specifically, nucleotides +1 through +364 (relative to the transcriptional start site) of ATF4 transcript variant 2 (NCBI NM_182810.2) flanked 5′ by EcoRI and 3′ by BamHI restriction enzyme sites were synthesized and cloned into the EcoRI/BamHI cloning sites of pLVX-EF1a-IRES-Puro lentivirus vector (Clontech). […]. H4 cells were selected with […] Puromycin, and clonal cell lines generated by limiting dilution. We utilized this cell line to generate an integrated stress response (ISR) assay to evaluate the activity of ISR pathway inhibitors via luminescence readout. The H4 ATF4-NLuc (clone 17) cell line is plated at a density of […] in 96-well or 384-well respectively in DMEM+10% fetal bovine serum. 24-hours later test compounds diluted in dimethyl sulfoxide (DMSO) are added for 30 minutes at 37 degree Celsius, followed by ISR pathway activation with 50 um sodium arsenite aqueous solution for 6 additional hours. Nano Glo luciferase reagent (N1150, Promega) is added according to manufacturer instructions and the luminescence signal (corresponding to the level of ATF4 translation and thus ISR pathway activation) is read with a standard plate reader with luminescence detection capabilities.
In the table below, activity of the tested compounds is provided in Table 3 as follows: +++=IC50<1 μM; ++=IC50 1-10 μM; +=IC50>10 μM.

| SMILES | IC50 [µM] |
| --- | --- |
| O=C(COC1CC(F)C1)NC12CC(NC(=O)c3ccc4cc(C(F)(F)F)ccc4n3)(C1)C2 (stereo not drawn) [Example 54, N-[1-[[2-(3-cis-fluorocyclobutoxy)acetyl]amino]-3-bicyclo[1.1.1]pentanyl]-6-(trifluoromethyl)quinoline-2-carboxamide] | < 1 |

Same assay, conditions: Homo sapiens, 0.5 h

| SMILES | IC50 [µM] |
| --- | --- |
| O=C(COc1ccc(Cl)c(F)c1)NC1C[C@H]2COC[C@@H](C1)N2c1cnn(C2CC(OC(F)(F)F)C2)c1 (stereo partly drawn) [Example 50, 2-(4-chloro-3-fluoro-phenoxy)-N-[(1S,5R,7r)-9-[1-[3-cis-(trifluoromethoxy)cyclobutyl]pyrazol-4-yl]-3-oxa-9-azabicyclo[3.3.1]nonan-7-yl]acetamide] | < 1 |
| O=C(COc1ccc(Cl)cc1)N[C@H]1C[C@@H]2CN(C(=O)COC3CC(OC(F)(F)F)C3)C[C@@H]2C1 (stereo partly shown) [Example 59] | < 1 |
| O=C(COc1ccc(Cl)cc1)NC1CC2CN(c3cnn([C@H]4C[C@@H](OC(F)(F)F)C4)c3)CC2C1 (stereo partly drawn) [Example 61, 2-(4-chlorophenoxy)-N-(2-(1-(3-cis-(trifluoromethoxy)cyclobutyl)-1H-pyrazol-4-yl)octahydrocyclopenta[c]pyrrol-5-yl)acetamide] | > 10 |
| O=C(COC1CCN(CC(F)(F)F)C1)NC12CC(NC(=O)c3ccc4cc(C(F)(F)F)ccc4n3)(C1)C2 (stereo not shown) [Example 73] | < 1 |

Same assay, conditions: Homo sapiens, 0.5 h; H4 ATF4-NLuc (clone 17) cells; compounds 30 minutes at 37 degree Celsius, then 50 um sodium arsenite for 6 additional hours; luminescence readout; read-out: IC50

| SMILES | IC50 [µM] |
| --- | --- |
| O=C(COc1ccc(Cl)c(F)c1)NC1CCN(c2cnn(C3CC(OC(F)(F)F)C3)c2)CC1 (stereo not drawn) [Example 46, 2-(4-chloro-3-fluorophenoxy)-N-(1-(1-(3-cis-(trifluoromethoxy)cyclobutyl)-1H-pyrazol-4-yl)piperidin-4-yl)acetamide] | < 1 |
| O=C(COc1ccc(Cl)c(F)c1)NC1CCN(CCOC2CC(OC(F)(F)F)C2)CC1(F)F (stereo not drawn) [Example 47, 2-(4-chloro-3-fluoro-phenoxy)-N-[3,3-difluoro-1-[2-[3-cis-(trifluoromethoxy)cyclobutoxy]ethyl]-4-piperidyl]acetamide] | < 1 |
| CO[C@H]1CN(CCOC2CC(OC(F)(F)F)C2)CCC1NC(=O)COc1ccc(Cl)c(F)c1 (stereo partly drawn) [Example 48, 2-(4-chloro-3-fluoro-phenoxy)-N-[cis-3-methoxy-1-[2-[3-cis-(trifluoromethoxy)cyclobutoxy]ethyl]-4-piperidyl]acetamide] | < 1 |
| CO[C@@H]1CN(CCOC2CC(OC(F)(F)F)C2)CCC1NC(=O)COc1ccc(Cl)c(F)c1 (stereo partly drawn) [Example 49, 2-(4-chloro-3-fluoro-phenoxy)-N-[trans-3-methoxy-1-[2-[3-cis-(trifluoromethoxy)cyclobutoxy]ethyl]-4-piperidyl]acetamide] | < 1 |
| O=C(COC1CC(OC(F)(F)F)C1)NC12CC(NC(=O)c3ccc4cc(C(F)(F)F)ccc4n3)(C1)C2 (stereo not drawn) [Example 51, N-[1-[[2-[3-cis-(trifluoromethoxy)cyclobutoxy]acetyl]amino]-3-bicyclo[1.1.1]pentanyl]-6-(trifluoromethyl)quinoline-2-carboxamide] | < 1 |
| O=C(COC1CC(OC(F)(F)F)C1)NC12CC(NC(=O)c3nc4cc(Cl)ccc4s3)(C1)C2 (stereo not drawn) [Example 52, 5-chloro-N-[1-[[2-[3-cis-(trifluoromethoxy)cyclobutoxy]acetyl]amino]-3-bicyclo[1.1.1]pentanyl]-1,3-benzothiazole-2-carboxamide] | < 1 |
| O=C(COC1CC(F)C1)NC12CC(NC(=O)c3ccc4cc(C(F)(F)F)ccc4n3)(C1)C2 (stereo not drawn) [Example 53, N-[1-[[2-(3-trans-fluorocyclobutoxy)acetyl]amino]-3-bicyclo[1.1.1]pentanyl]-6-(trifluoromethyl)quinoline-2-carboxamide] | < 1 |
| O=C(COCC1CC1(F)F)NC12CC(NC(=O)c3ccc4cc(C(F)(F)F)ccc4n3)(C1)C2 (stereo not shown) [Example 55, N-[1-[[2-[(2,2-difluorocyclopropyl)methoxy]acetyl]amino]-3-bicyclo[1.1.1]pentanyl]-6-(trifluoromethyl)quinoline-2-carboxamide] | < 1 |
| O=C(COc1ccc(Cl)c(F)c1)NC1CCN(CCOC2CC(OC(F)(F)F)C2)C(=O)C1 (stereo not drawn) [Example 56, 2-(4-chloro-3-fluorophenoxy)-N-(2-oxo-1-(2-(3-cis-(trifluoromethoxy)cyclobutoxy)ethyl)piperidin-4-yl)acetamide] | < 1 |
| O=C(COc1ccc(Cl)c(F)c1)NC1CCN(CC(F)(F)COC2CC(OC(F)(F)F)C2)CC1 (stereo not drawn) [Example 57, 2-(4-chloro-3-fluorophenoxy)-N-(1-(2,2-difluoro-3-(3-cis-(trifluoromethoxy)cyclobutoxy)propyl)piperidin-4-yl)acetamide] | < 1 |
| O=C(COc1ccc(Cl)c(F)c1)NCC1CCN(C(=O)COC2CC(OC(F)(F)F)C2)C1 (stereo not drawn) [Example 60, 2-(4-chloro-3-fluorophenoxy)-N-((1-(2-(3-cis-(trifluoromethoxy)cyclobutoxy)acetyl)pyrrolidin-3-yl)methyl)acetamide] | < 1 |
| O=C(COc1ccc(Cl)c(F)c1)NC1CCN(C(=O)COC2CC(OC(F)(F)F)C2)CC1 (stereo not drawn) [Example 62, 2-(4-chloro-3-fluoro-phenoxy)-N-[1-[2-[3-cis-(trifluoromethoxy)cyclobutoxy]acetyl]-4-piperidyl]acetamide] | < 1 |
| O=C(NC1CCN(C(=O)COC2CC(OC(F)(F)F)C2)CC1)c1ccc2cc(Cl)ccc2n1 (stereo not drawn) [Example 63, 6-chloro-N-[1-[2-[3-cis-(trifluoromethoxy)cyclobutoxy]acetyl]-4-piperidyl]quinoline-2-carboxamide] | < 1 |
| O=C(COC1CC(OC(F)(F)F)C1)NC12CC(NC(=O)c3ccc4cc(Cl)ccc4n3)(C1)C2 (stereo not drawn) [Example 64, 6-chloro-N-[1-[[2-[3-cis-(trifluoromethoxy)cyclobutoxy]acetyl]amino]-3-bicyclo[1.1.1]pentanyl]quinoline-2-carboxamide] | < 1 |
| O=C(COC1CCC1)NC12CC(NC(=O)c3ccc4cc(Cl)ccc4n3)(C1)C2 [Example 65, 6-chloro-N-[1-[[2-(cyclobutoxy)acetyl]amino]-3-bicyclo[1.1.1]pentanyl]quinoline-2-carboxamide] | < 1 |
| O=C(COC1CC(OC(F)(F)F)C1)NC12CC(NC(=O)c3ccc4cc(F)ccc4n3)(C1)C2 (stereo not drawn) [Example 66, 6-fluoro-N-[1-[[2-[3-cis-(trifluoromethoxy)cyclobutoxy]acetyl]amino]-3-bicyclo[1.1.1]pentanyl]quinoline-2-carboxamide] | < 1 |
| O=C(COC1CC(C(F)(F)F)C1)NC12CC(NC(=O)c3ccc4cc(C(F)(F)F)ccc4n3)(C1)C2 (stereo not shown) [Example 67, 6-(trifluoromethyl)-N-(3-(2-(3-(trifluoromethyl)cyclobutoxy)acetamido)bicyclo[1.1.1]pentan-1-yl)quinoline-2-carboxamide] | < 1 |
| O=C(COC1CC(OC(F)(F)F)C1)NC12CC(NC(=O)c3ccc4c(F)c(F)ccc4n3)(C1)C2 (stereo not drawn) [Example 68, 5,6-difluoro-N-(3-(2-(3-cis-(trifluoromethoxy)cyclobutoxy)acetamido)bicyclo[1.1.1]pentan-1-yl)quinoline-2-carboxamide] | < 1 |
| O=C(COC1CC(OC(F)(F)F)C1)NC12CC(NC(=O)c3ccc4cc(F)c(F)cc4n3)(C1)C2 (stereo not drawn) [Example 69, 6,7-difluoro-N-(3-(2-(3-cis-(trifluoromethoxy)cyclobutoxy)acetamido)bicyclo[1.1.1]pentan-1-yl)quinoline-2-carboxamide] | < 1 |
| CC(C)OC1CC(OCC(=O)NC23CC(NC(=O)c4ccc5cc(C(F)(F)F)ccc5n4)(C2)C3)C1 (stereo not drawn) [Example 70, N-(3-(2-(3-cis-isopropoxycyclobutoxy)acetamido)bicyclo[1.1.1]pentan-1-yl)-6-(trifluoromethyl)quinoline-2-carboxamide] | < 1 |
| CCOC1CC(OCC(=O)NC23CC(NC(=O)c4ccc5cc(C(F)(F)F)ccc5n4)(C2)C3)C1 (stereo not drawn) [Example 71, N-(3-(2-(3-cis-ethoxycyclobutoxy)acetamido)bicyclo[1.1.1]pentan-1-yl)-6-(trifluoromethyl)quinoline-2-carboxamide] | < 1 |
| O=C(COc1ccc(C(F)(F)F)cc1)NC12CC(N3CCN(C4CC(OC(F)(F)F)C4)C3=O)(C1)C2 (stereo not shown) [Example 74] | < 1 |
| O=C(COC1CC(CC(F)(F)F)C1)NC12CC(NC(=O)c3ccc4cc(C(F)(F)F)ccc4n3)(C1)C2 (stereo not shown) [Example 75] | < 1 |
